Test results as given in patent publication US9028856B2, “Synergistic pesticide compositions” (priority 2008, dated 2015).

Tests used:
[1] = system: Aedes aegypti mosquito; assay: USDA Petri Dish Method, 3 min exposure to dipped fiberglass window screen; assay type: in vivo; conditions: dipped screen, 3 min exposure
Method: MATERIALS AND METHODS: Aqueous solutions of 1% deltamethrin with and without an adjuvant composition, which is sold under the tradename Suspend® SC. […] Pre-cut fiberglass screen (5″×5″, or 161.3 cm^2) were dipped in each treatment solution and excessive solution was allowed to drain completely (see FIG. 23 a). Weight of the solution coated on the screen was then determined. The treated screen was then allowed to air-dry overnight. USDA Petri Dish Method was used as initial screening protocol (see FIG. 23 b). Twenty, 4-6 day old female Aedes aegypti were exposed to treated window screen for 3 minutes and then moved onto a clean untreated white paper index card. Treatments were replicated a minimum of three times. Mosquito knockdown was evaluated at 3 minute intervals for the first 15 minutes and then at 5 minute intervals for the remainder of an hour. A small cotton ball with sucrose solution was added on the screen top of the Petri dish as a drinking source. Mortality was evaluated at 24 hours after exposure.
MATERIALS AND METHODS: Several rates of permethrin without adjuvant were prepared using product sold under the tradename Permanone® 40 to determine an effective rate against Aedes aegypti mosquitoes. After determining an effective rate range, aqueous solutions of permethrin at 1.25, 1.0 and 0.05% AI were prepared with and without adjuvant. […] Pre-cut fiberglass screens (5″×5″ or 161.3 cm^2) were dipped in each treatment solution allowing excessive solution to drain completely. Weight of the solution coated on the screen was then determined. The treated screen was then allowed to air-dry overnight. USDA Petri Dish Method was used as initial screening protocol (see photo, right). Twenty, 4-6 day old female Aedes aegypti were exposed to treated window screen for 3 minutes and then moved to a clean untreated white paper index card. Treatments were replicated a minimum of three times. Mosquito knockdown was evaluated at 3 minute intervals for the first 15 minutes and then at 5 minute intervals for the remainder of an hour. A small cotton ball with sucrose solution was added on the screen top of the petri-dish as a drinking source. Mortality was evaluated at 24 hours after exposure.

[2] = system: Aedes aegypti mosquito; assay: USDA Petri Dish Method, 3 min exposure to treated glazed tile; assay type: in vivo; conditions: Aedes aegypti
Method: (§1) Treatments were allowed to dry overnight. USDA Petri Dish Method was used as initial screening protocol. Twenty, 4-6 day old female Aedes aegypti mosquitoes were exposed to each treatment for 3 minutes and then moved to a clean untreated white paper index card. Treatments were replicated a minimum of three times. Mosquito knockdown was evaluated at various intervals through 7 hours after exposure. A small cotton ball soaked in sucrose solution was added on the screen top of the petri-dish as a drinking source. Mortality was evaluated at 24 hours after exposure.
MATERIALS AND METHODS: Solutions of resmethrin at 1 and 0.5% AI were prepared with and without adjuvant in acetone. […] USDA Petri Dish Method was used as initial screening protocol. Twenty, 4-6 day old female Aedes aegypti mosquitoes were exposed to each treatment for 3 minutes and then moved to a clean untreated white paper index card. Treatments were replicated a minimum of three times. Mosquito knockdown was evaluated at 3 minute intervals for the first 15 minutes and then at 5 minute intervals for the remainder of an hour. A small cotton ball soaked in sucrose solution was added on the screen top of the petri-dish as a drinking source. Mortality was evaluated at 24 hours after exposure.
as §1, with “6” for “7”
as §1, with “5 minute” for “various”, “for the first hour and then at 2, 4 and 6 hours.” for “through 7 hours after exposure.”
Treatments were allowed to dry overnight. USDA Petri Dish Method was used as initial screening protocol. Twenty, 4-6 day old female Aedes aegypti mosquitoes were exposed to each treatment for 3 minutes and then moved to a clean untreated white paper index card. Treatments were replicated a minimum of three times. Mosquito knockdown was evaluated at 3-5 minute intervals for the first hour. A small cotton ball soaked in sucrose solution was then added on the screen top of the petri-dish as a drinking source. Mortality was evaluated at 24 hours after exposure.
as §1, with “intervals through 2 hours after” for “intervals through 7 hours after”, “solution was then added on” for “solution was added on”
Treatments were allowed to dry overnight. USDA Petri Dish Method was used as initial screening protocol. Twenty, 4-6 day old female Aedes aegypti mosquitoes were exposed to each treatment for 3 minutes and then moved to a clean untreated white paper index card. Treatments were replicated a minimum of three times. Mosquito knockdown was evaluated at various hourly intervals. […]

[3] = Table 39, permethrin without adjuvant (Permanone 40)
[4] = Table 56, glazed tile, 3 min exposure
[5] = Table 56, glazed tile, 3 min exposure, adjuvant = Compound A 1% + Compound B 0.5%
[6] = Table 40, aqueous permethrin/adjuvant

Row | SMILES | Average % Knockdown & Mortality after 3 min [1, 3] | Average % Knockdown & Mortality after 9 min [1, 3] | Average % Knockdown & Mortality after 15 min [1, 3] | Average % Knockdown & Mortality after 30 min [1, 3] | Average % Knockdown & Mortality after 60 min [1, 3] | Average % Knockdown & Mortality after 24 hr [1, 3] | other results
1 | CC1(C)C(C=C(Cl)Cl)C1C(=O)OCc1cccc(Oc2ccccc2)c1 (stereo not drawn) [Permethrin (1.5%)] | 0% | 0% | 2% | 2% | 3% | 16% | 
2 | CC[S+]([O-])c1c(C#N)nn(-c2c(Cl)cc(C(F)(F)F)cc2Cl)c1N (stereo not drawn) [Ethiprole (.1%)] |  |  |  |  |  |  | Average % Knockdown & Mortality after 4 hr [2, 4]: 3%; Average % Knockdown & Mortality after 6 hr [2, 4]: 15%; Average % Knockdown & Mortality after 24 hr [2, 4]: 25%; Average % Knockdown & Mortality after 2 hr [2, 5]: 3%
3 | CC1(C)C(C=C(Cl)Cl)C1C(=O)OCc1cccc(Oc2ccccc2)c1 (stereo not drawn) [Permethrin (5%)] | 75% | 100% | 100% | 100% | 100% | 100% | 
4 | CC1(C)C(C=C(Cl)Cl)C1C(=O)OCc1cccc(Oc2ccccc2)c1 (stereo not drawn) [Permethrin (1.75%)] | 40% | 95% | 100% | 100% | 100% | 100% | 
5 | CN/C(=N\[N+](=O)[O-])NCc1cnc(Cl)s1 [Clothianidin (1%)] |  |  |  |  |  |  | Average % Knockdown & Mortality after 1 hr ([2]; Table 78, clothianidin study, glazed tile, 3 min exposure, adjuvant = Compound A 1% + Compound B 0.5%, 1 hr): 0%; Average % Knockdown & Mortality after 2 hr ([2]; Table 78, clothianidin study): 0%; Average % Knockdown & Mortality after 4 hr ([2]; Table 78, clothianidin study): 0%; Average % Knockdown & Mortality after 24 hr ([2]; Table 78, clothianidin study): 0%
6 | CC1(C)C(C=C(Cl)Cl)C1C(=O)OCc1cccc(Oc2ccccc2)c1 (stereo not drawn) [Permethrin (1.25%)] | 46% | 71% | 71% | 72% | 79% | 82% | Average % Knockdown & Mortality after 3 min [1, 6]: 0%; Average % Knockdown & Mortality after 9 min [1, 6]: 0%; Average % Knockdown & Mortality after 15 min [1, 6]: 2%; Average % Knockdown & Mortality after 30 min [1, 6]: 2%; Average % Knockdown & Mortality after 60 min [1, 6]: 3%; Average % Knockdown & Mortality after 24 hr [1, 6]: 7%
7 | CC1(C)C(C=C(Cl)Cl)C1C(=O)OCc1cccc(Oc2ccccc2)c1 (stereo not drawn) [Permethrin (1.0%)] | 0% | 2% | 2% | 5% | 18% | 34% | Average % Knockdown & Mortality after 3 min [1, 6]: 2%; Average % Knockdown & Mortality after 9 min [1, 6]: 2%; Average % Knockdown & Mortality after 15 min [1, 6]: 2%; Average % Knockdown & Mortality after 30 min [1, 6]: 4%; Average % Knockdown & Mortality after 60 min [1, 6]: 13%; Average % Knockdown & Mortality after 24 hr [1, 6]: 28%
8 | CC1(C)C(C=C(Cl)Cl)C1C(=O)OCc1cccc(Oc2ccccc2)c1 (stereo not drawn) [Permethrin (2.5%)] | 56% | 100% | 100% | 100% | 100% | 100% | 
9 | CC[S+]([O-])c1c(C#N)nn(-c2c(Cl)cc(C(F)(F)F)cc2Cl)c1N (stereo not drawn) [Ethiprole (.01%)] |  |  |  |  |  |  | Average % Knockdown & Mortality after 4 hr [2, 4]: 2%; Average % Knockdown & Mortality after 6 hr [2, 4]: 12%; Average % Knockdown & Mortality after 24 hr [2, 4]: 17%; Average % Knockdown & Mortality after 2 hr [2, 5]: 0%
10 | CC1(C)C(C=C(Cl)Cl)C1C(=O)OCc1cccc(Oc2ccccc2)c1 (stereo not drawn) [Permethrin (0.1%)] | 0% | 0% | 0% | 0% | 0% | 5% | 
